Results: PMC12517401, “Design, synthesis, and antiproliferative activity of new 2-amino-pyrano[3,2-c]quinoline-3-carbonitriles as potential EGFR, BRAF^V600E, and HER-2 inhibitors” (RSC Advances, 2025)

Assays:
[1] = system: pancreatic cancer (Panc-1); test: Antiproliferative assay, Panc-1; type: cell-based; conditions: Homo sapiens; Panc-1 pancreatic cancer cell line; read-out: Antiproliferative activity IC50 ± SEM (nM) Panc-1
Procedure: (§1) 4.2.2. Assay for antiproliferative effect
(§2) To explore the antiproliferative potential of compounds propidium iodide fluorescence assay was performed using different cell lines such as Panc-1 (pancreas cancer cell line), MCF-7 (breast cancer cell line), HT-29 (colon cancer cell line) and A-549 (epithelial cancer cell line), respectively. To calculate the total nuclear DNA, a fluorescent dye (propidium iodide, PI) is used which can attach to the DNA, thus offering a quick and precise technique. PI cannot pass through the cell membrane and its signal intensity can be considered as directly proportional to quantity of cellular DNA. Cells whose cell membranes are damaged or have changed permeability are counted as dead ones. The assay was performed by seeding the cells of different cell lines at a density of 3000-7500 cells/well (in 200μl medium) in culture plates followed by incubation for 24h at 37 °C in humidified 5%CO2/95% air atmospheric conditions. The medium was removed; the compounds were added to the plates at 10 μM concentrations (in 0.1% DMSO) in triplicates, followed by incubation for 48h. DMSO (0.1%) was used as control. After incubation, medium was removed followed by the addition of PI (25 μl, 50μg/mL in water/medium) to each well of the plates. At -80 °C, the plates were allowed to freeze for 24 h, followed by thawing at 25 °C. A fluorometer (Polar-Star BMG Tech) was used to record the readings at excitation and emission wavelengths of 530 and 620 nm for each well. The percentage cytotoxicity of compounds was calculated using the following formula:
(§3) Where ATC= Absorbance of treated cells and AC= Absorbance of control. Erlotinib was used as positive control in the assay. […]

breast cancer (MCF-7) = test: Antiproliferative assay, MCF-7; type: cell-based, human; conditions: for IC50: Homo sapiens, MCF7, MCF-7 breast cancer cell line, read-out: Antiproliferative activity IC50 ± SEM (nM) MCF-7
Procedure: as §1, §2, §3

lung cancer (A-549) = test: Antiproliferative assay, A-549; type: cell-based; conditions: Homo sapiens, A549; A-549 lung cancer cell line; read-out: Antiproliferative activity IC50 ± SEM (nM) A-549
Procedure: as §1, §2, §3
(1 picture or pasted object on this page, not shown here)

colon cancer (HT-29) = test: Antiproliferative assay, HT-29; type: cell-based; conditions: Homo sapiens; HT-29 colon cancer cell line; read-out: Antiproliferative activity IC50 ± SEM (nM) HT-29
Procedure: as §1, §2, §3

[2] = Cell viability assay (MTT) on MCF-10A normal cell line; type: cell-based; conditions: human, MCF-10A mammary gland epithelial normal cells, MCF-10A cells, 50 μM of each compound, four days of incubation
Procedure: The human mammary gland epithelial (MCF-10A) normal cell line was used to examine the viability effects of new derivatives 5a–l using the MTT test.[33,34] Refer to Appendix A for more details.
The human mammary gland epithelium (MCF-10A) normal cell line was employed to evaluate the viability effects of novel derivatives 5a–l. The cell viability of 5a–l was assessed via the MTT assay following four days of incubation with 50 μM of each compound on MCF-10A cells.[33,34] […]
4.2. Biological evaluation
4.2.1 Cell Viability assay (MTT assay)
MTT assay was performed to investigate the effect of the synthesized compounds on mammary epithelial cells (MCF-10A). The cells were propagated in medium consisting of Ham's F-12 medium/ Dulbecco's modified Eagle's medium (DMEM) (1:1) supplemented with 10% foetal calf serum, 2 mM glutamine, insulin (10 μg/mL), hydrocortisone (500 ng/mL) and epidermal growth factor (20 ng/mL). Trypsin ethylenediamine tetra acetic acid (EDTA) was used to passage the cells after every 2-3 days. 96-well flat-bottomed cell culture plates were used to seed the cells at a density of 10^4 cells mL-1. The medium was aspirated from all the wells of culture plates after 24 h followed by the addition of synthesized compounds (in 200 μL medium to yield a final concentration of 0.1% (v/v) dimethyl sulfoxide) into individual wells of the plates. Four wells were designated to a single compound. The plates were allowed to incubate at 37°C for 96 h. Afterwards, the medium was aspirated and 3-[4,5-dimethylthiazol-2-yl]-2,5-diphenyltetrazolium bromide (MTT) (0.4 mg/mL) in medium was added to each well and subsequently incubated for 3 h. The medium was aspirated and 150 μL dimethyl sulfoxide (DMSO) was added to each well. The plates were vortexed followed by the measurement of absorbance at 540 nm on a microplate reader. The results were presented as inhibition (%) of proliferation in contrast to controls comprising 0.1% DMSO. […]

[3] = system: four human cancer cell lines (A-549, MCF-7, Panc-1, HT-29); test: Antiproliferative assay, average over four cancer cell lines (GI50); type: cell-based; conditions: for GI50: Homo sapiens, GI50 = mean IC50 against the four cancer cell lines; for Potency reduction fold compared to 5h (GI50): ratio of GI50 versus 5h; for Times less efficient than 5a (GI50): ratio of GI50 versus 5a
Procedure: as §1
To explore the antiproliferative potential of compounds propidium iodide fluorescence assay was performed using different cell lines such as Panc-1 (pancreas cancer cell line), MCF-7 (breast cancer […]
calculate the total nuclear DNA, a fluorescent dye (propidium iodide, PI) is used which can attach to the DNA, thus offering a quick and precise technique. PI cannot pass through the cell membrane and its signal intensity can be considered as directly proportional to quantity of cellular DNA. Cells whose cell membranes are damaged or have changed permeability are counted as dead ones. The assay was performed by seeding the cells of different cell lines at a density of 3000-7500 cells/well (in 200μl […]
atmospheric conditions. The medium was removed; the compounds were added to the plates at 10 μM concentrations (in 0.1% DMSO) in triplicates, followed by incubation for 48h. DMSO (0.1%) was used as control. After incubation, medium was removed followed by the addition of PI (25 μl, 50μg/mL in water/medium) to each well of the plates. At -80 °C, the plates were allowed to freeze for 24 h, followed by thawing at 25 °C. A fluorometer (Polar-Star BMG Tech) was used to record the readings at excitation and emission wavelengths of 530 and 620 nm for each well. The percentage cytotoxicity of compounds was calculated using the following formula:
Where ATC= Absorbance of treated cells and AC= Absorbance of control. […]
positive control in the assay. […]

EGFR = EGFR (Homo sapiens, UniProt P00533); test: EGFR-TK inhibitory assay
Sequence of EGFR (P00533 669-1210): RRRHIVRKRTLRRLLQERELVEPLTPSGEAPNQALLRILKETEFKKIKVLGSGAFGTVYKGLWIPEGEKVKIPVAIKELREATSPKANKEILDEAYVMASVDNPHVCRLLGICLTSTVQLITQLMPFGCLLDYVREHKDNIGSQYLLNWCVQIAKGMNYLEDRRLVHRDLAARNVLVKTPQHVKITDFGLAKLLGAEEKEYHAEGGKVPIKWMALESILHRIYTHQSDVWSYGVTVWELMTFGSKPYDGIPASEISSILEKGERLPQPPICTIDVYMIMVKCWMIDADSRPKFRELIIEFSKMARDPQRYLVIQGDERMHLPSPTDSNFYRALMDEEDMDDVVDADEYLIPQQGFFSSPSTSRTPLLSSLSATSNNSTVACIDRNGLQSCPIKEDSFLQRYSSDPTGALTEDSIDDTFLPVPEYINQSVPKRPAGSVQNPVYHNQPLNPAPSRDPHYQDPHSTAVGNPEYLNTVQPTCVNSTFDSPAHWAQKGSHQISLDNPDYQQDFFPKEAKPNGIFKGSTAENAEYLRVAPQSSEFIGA
Procedure: Baculoviral expression vectors including pBlueBacHis2B and pFASTBacHTc were used separately
upstream to the EGFR sequence comprised a sequence that encoded (His)6. Sf-9 cells were infected for 72h for protein expression. The pellets of Sf-9 cells were solubilized in a buffer containing sodium vanadate (100 μM), aprotinin (10 μg/mL), triton (1%), HEPES buffer(50mM), ammonium molybdate (10 μM), benzamidine HCl (16 μg/mL), NaCl (10 mM),leupeptin (10 μg/mL) and pepstatin (10 μg/mL) at 0°C for 20 min at pH 7.4, followed by centrifugation for 20 min. To eliminate the nonspecifically bound material, a Ni-NTA super flow packed column was used to pass through and wash the crude extract supernatant first with 10mM and then with 100 mM imidazole. Histidine-linked proteins were first eluted with 250 and then with 500 mM imidazole subsequent to dialysis against NaCl (50 mM), HEPES (20 mM), glycerol (10%) and 1 μg/mL each of aprotinin, leupeptin and pepstatin for 120 min. The purification was performed either at 4 °C or on ice. To record autophosphorylation level, EGFR kinase assay was carried out on the basis of DELFIA/Time-Resolved Fluorometry. The compounds were first dissolved in DMSO absolute, subsequent to dilution to appropriate concentration using HEPES (25 mM) at pH 7.4. Each compound (10 μL) was incubated with recombinant enzyme (10 μL, 5 ng for EGFR, 1:80 dilution in 100 mM HEPES) for 10 min at 25 °C, subsequent to the addition of 5X buffer (10 μL, containing 2 mM MnCl2, 100 μM Na3VO4, 20 mM HEPES and 1 mM DTT) and ATP-MgCl2 (20 μL, containing 0.1 mM ATP and 50 mM MgCl2) and incubation for 1h. The negative and positive controls were included in each plate by the incubation of enzyme either with or without ATP-MgCl2. The liquid was removed after incubation and the plates were washed thrice using a wash buffer. The Europium-tagged antiphosphotyrosine antibody (75 μL, 400 ng) was added to each well followed by incubation of 1h
and then washing of the plates using buffer. The enhancement solution was added to each well and
autophosphorylation percentage inhibition by compounds was calculated using the following
calculated. The majority of signals detected by antiphosphotyrosine antibody were from EGFR because the enzyme preparation contained low impurities.

HER-2 = biological target: T1, HER-2 (Homo sapiens, UniProt P04626); test: HER-2 inhibitory assay (ADP-Glo kinase assay); type: biochemical; conditions: read-out: HER-2 inhibition IC50 ± SEM
T1 construct: purchased Abcam ab60866
T1 sequence (P04626 23-1255): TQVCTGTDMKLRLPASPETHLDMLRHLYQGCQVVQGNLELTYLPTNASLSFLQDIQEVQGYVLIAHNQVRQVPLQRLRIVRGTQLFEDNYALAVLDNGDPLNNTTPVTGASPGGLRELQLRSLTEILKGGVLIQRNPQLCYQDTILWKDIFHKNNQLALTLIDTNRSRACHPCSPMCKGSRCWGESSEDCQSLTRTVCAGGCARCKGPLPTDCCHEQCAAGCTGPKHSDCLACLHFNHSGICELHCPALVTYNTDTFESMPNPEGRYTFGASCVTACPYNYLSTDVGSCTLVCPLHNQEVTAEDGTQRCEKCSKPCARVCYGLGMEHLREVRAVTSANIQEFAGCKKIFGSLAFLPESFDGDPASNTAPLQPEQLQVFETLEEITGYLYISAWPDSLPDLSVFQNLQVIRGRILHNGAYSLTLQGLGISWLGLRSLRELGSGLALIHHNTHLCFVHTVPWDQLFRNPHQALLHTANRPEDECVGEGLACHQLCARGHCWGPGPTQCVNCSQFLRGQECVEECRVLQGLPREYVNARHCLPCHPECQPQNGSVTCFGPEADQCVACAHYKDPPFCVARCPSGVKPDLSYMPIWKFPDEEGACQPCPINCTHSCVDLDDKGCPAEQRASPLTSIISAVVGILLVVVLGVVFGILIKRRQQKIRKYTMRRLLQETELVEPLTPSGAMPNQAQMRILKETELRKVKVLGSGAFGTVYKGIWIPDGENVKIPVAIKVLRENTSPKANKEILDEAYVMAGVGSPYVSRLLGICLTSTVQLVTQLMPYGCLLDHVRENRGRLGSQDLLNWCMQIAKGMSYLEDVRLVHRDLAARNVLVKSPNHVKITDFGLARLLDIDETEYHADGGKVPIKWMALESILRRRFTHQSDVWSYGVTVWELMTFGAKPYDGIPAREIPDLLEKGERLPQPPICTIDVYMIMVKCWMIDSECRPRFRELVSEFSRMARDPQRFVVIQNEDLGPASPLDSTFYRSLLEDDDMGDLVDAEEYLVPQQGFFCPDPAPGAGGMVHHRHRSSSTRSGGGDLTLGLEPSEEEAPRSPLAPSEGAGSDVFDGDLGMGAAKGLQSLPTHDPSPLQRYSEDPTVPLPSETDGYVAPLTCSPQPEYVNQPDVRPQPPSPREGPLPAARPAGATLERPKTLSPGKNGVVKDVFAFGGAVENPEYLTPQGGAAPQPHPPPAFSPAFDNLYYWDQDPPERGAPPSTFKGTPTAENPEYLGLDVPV
Procedure: The results are presented as IC50 values. Lapatinib served as the reference medication. Appendix A describes more experimental details.
Lapatinib functioned as the reference drug. […]
4.2.5. HER-2 inhibitory assay
The ADP-Glo™ Kinase Assay was used for kinase activity detection, related kinases information:
HER-2 (ab60866, Abcam), with a concentration of 100 ng/mL. Target compounds were dissolved in DMSO to obtain drug solutions with different concentrations, and the compound concentrations in the final reaction system (100 μL) were 1 nM, 20 nM, 40 nM, 80 nM, and 100 nM, respectively. 10μL of the solution containing compounds was transferred to a 96-well plate, then added 40 μL of 1 × kinase buffer (50 mM HEPES, pH 7.5) to each well, and mixed the mixture in the 96-well plate on a shaker for 10 min. Next, added 25 μL of ADP-Glo™ reagent to the above wells, mixed and incubated for another 40 min. Distributed 10 μL kinase detection reagent to the reaction and incubated for 30 min. Finally, the full-wavelength microplate reader was used to record the OD value.
4.3. Statistical analysis
Computerized Prism 5 program was used to statistically analyzed data using one-way ANOVA test followed by Tukey’s as post ANOVA for multiple comparison at P ≤.05. Data were presented as […]

BRAF^V600E = BRAF^V600E (Mus musculus, UniProt P28028, V585E); test: BRAF^V600E inhibitory assay
Sequence of BRAF^V600E (P28028 whole entry V585E): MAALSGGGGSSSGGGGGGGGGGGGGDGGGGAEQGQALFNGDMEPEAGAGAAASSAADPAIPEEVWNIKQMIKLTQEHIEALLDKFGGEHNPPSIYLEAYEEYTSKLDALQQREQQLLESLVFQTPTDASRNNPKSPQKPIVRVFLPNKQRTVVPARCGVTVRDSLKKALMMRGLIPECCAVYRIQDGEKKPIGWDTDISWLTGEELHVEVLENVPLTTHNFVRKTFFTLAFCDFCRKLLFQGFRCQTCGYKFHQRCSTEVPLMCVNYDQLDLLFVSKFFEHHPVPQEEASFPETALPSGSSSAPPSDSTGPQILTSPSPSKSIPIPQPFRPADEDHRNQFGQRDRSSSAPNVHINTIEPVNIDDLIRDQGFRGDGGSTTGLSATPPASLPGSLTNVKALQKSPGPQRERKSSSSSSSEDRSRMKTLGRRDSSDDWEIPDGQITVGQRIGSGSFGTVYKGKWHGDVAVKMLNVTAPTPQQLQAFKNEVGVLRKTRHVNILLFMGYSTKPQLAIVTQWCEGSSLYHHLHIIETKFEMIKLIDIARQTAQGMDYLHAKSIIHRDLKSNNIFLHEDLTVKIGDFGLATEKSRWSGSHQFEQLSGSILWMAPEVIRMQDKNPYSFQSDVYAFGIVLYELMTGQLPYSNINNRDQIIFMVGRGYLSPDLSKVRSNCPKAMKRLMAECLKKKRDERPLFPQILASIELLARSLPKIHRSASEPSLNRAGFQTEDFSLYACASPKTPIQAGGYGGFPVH

Row | SMILES | IC50 [1] [nM] | IC50 (breast cancer (MCF-7)) [nM] | IC50 (lung cancer (A-549)) [nM] | IC50 (colon cancer (HT-29)) [nM] | viability at 4 days, 50 µM [2] [%] | GI50 [3] [nM] | Potency reduction fold compared to 5h (GI50) [3] [fold] | IC50 (EGFR) [nM] | Fold more potency than erlotinib, EGFR (EGFR; ratio of EGFR IC50 versus erlotinib) [fold] | Potency fold greater than erlotinib, MCF-7 (breast cancer (MCF-7); ratio of IC50 versus erlotinib, MCF-7) [fold] | IC50 (HER-2) [nM] | IC50 (BRAF^V600E) [nM] | Times more effective than erlotinib (GI50) ([3]; ratio of GI50 versus erlotinib, four cancer cell lines) [fold] | Times less efficient than 5a (GI50) [3] [fold] | Fold less potent than 5e, EGFR (EGFR; ratio of EGFR IC50 versus 5e) [fold]
1 | COc1ccc2[nH]c(=O)c3c(c2c1)OC(N)=C(C#N)C3c1ccc(Cl)cc1 (stereo not drawn) [Compound 5l, 2-Amino-9-methoxyl-4-(4-chlorophenyl)-5-oxo-5,6-dihydro-4H-pyrano[3,2-c]quinoline-3-carbonitrile] | 62 ± 5 | 56 ± 5 | 60 ± 5 | 63 ± 5 | 92 | 61 | 2.3 | – | – | – | – | – | – | – | –
2 | N#CC1=C(N)Oc2c(c(=O)[nH]c3ccccc23)C1c1ccc(Cl)cc1 (stereo not drawn) [Compound 5j, 2-Amino-4-(4-chlorophenyl)-5-oxo-5,6-dihydro-4H-pyrano[3,2-c]quinoline-3-carbonitrile] | 44 ± 4 | 38 ± 3 | 43 ± 4 | 46 ± 4 | 91 | 43 | – | – | – | – | – | – | – | – | –
3 | Cn1c(=O)c2c(c3ccccc31)OC(N)=C(C#N)C2c1ccccc1 (stereo not drawn) [Compound 5e, 2-Amino-6-methyl-5-oxo-4-phenyl-5,6-dihydro-4H-pyrano[3,2-c]quinoline-3-carbonitrile] | 28 ± 2 | 24 ± 2 | 26 ± 2 | 27 ± 2 | 90 | 26 | – | 71 ± 4 | 1.2 | 1.7 | 21 ± 1 | 62 ± 3 | 1.3 | – | –
4 | COc1ccc(C2C(C#N)=C(N)Oc3c2c(=O)[nH]c2ccccc32)cc1 (stereo not drawn) [Compound 5f, 2-Amino-4-(4-methoxylphenyl)-5-oxo-5,6-dihydro-4H-pyrano[3,2-c]quinoline-3-carbonitrile] | 56 ± 5 | 50 ± 4 | 54 ± 4 | 56 ± 5 | 92 | 54 | – | – | – | – | – | – | – | – | –
5 | Cc1ccc2[nH]c(=O)c3c(c2c1)OC(N)=C(C#N)C3c1ccccc1 (stereo not drawn) [Compound 5b, 2-Amino-9-methyl-5-oxo-4-phenyl-5,6-dihydro-4H-pyrano[3,2-c]quinoline-3-carbonitrile] | 48 ± 4 | 44 ± 4 | 48 ± 4 | 50 ± 5 | 90 | 48 | – | – | – | – | – | – | – | 1.5 | –
6 | Cc1ccc2c3c(c(=O)[nH]c2c1)C(c1ccccc1)C(C#N)=C(N)O3 (stereo not drawn) [Compound 5d, 2-Amino-8-methyl-5-oxo-4-phenyl-5,6-dihydro-4H-pyrano[3,2-c]quinoline-3-carbonitrile] | 36 ± 3 | 31 ± 2 | 35 ± 3 | 37 ± 3 | 93 | 35 | – | 87 ± 5 | – | – | 39 ± 2 | 83 ± 5 | – | – | –
7 | COc1ccc2[nH]c(=O)c3c(c2c1)OC(N)=C(C#N)C3c1ccccc1 (stereo not drawn) [Compound 5c, 2-Amino-9-methoxy-5-oxo-4-phenyl-5,6-dihydro-4H-pyrano[3,2-c]quinoline-3-carbonitrile] | 68 ± 6 | 59 ± 5 | 66 ± 6 | 70 ± 6 | 91 | 66 | 2.5 | – | – | – | – | – | – | 2.1 | –
8 | N#CC1=C(N)Oc2c(c(=O)[nH]c3ccccc23)C1c1ccccc1 (stereo not drawn) [Compound 5a, 2-Amino-5-oxo-4-phenyl-5,6-dihydro-4H-pyrano[3,2-c]quinoline-3-carbonitrile] | 32 ± 2 | 27 ± 2 | 32 ± 2 | 32 ± 2 | 92 | 31 | – | 84 ± 5 | – | – | 36 ± 2 | 79 ± 5 | – | – | 1.2
9 | Cc1ccc2[nH]c(=O)c3c(c2c1)OC(N)=C(C#N)C3c1ccc(Cl)cc1 (stereo not drawn) [Compound 5k, 2-Amino-9-methyl-4-(4-chlorophenyl)-5-oxo-5,6-dihydro-4H-pyrano[3,2-c]quinoline-3-carbonitrile] | 42 ± 3 | 34 ± 3 | 39 ± 3 | 42 ± 3 | 93 | 39 | – | – | – | – | – | – | – | – | –
10 | COc1ccc(C2C(C#N)=C(N)Oc3c2c(=O)[nH]c2ccc(C)cc32)cc1 (stereo not drawn) [Compound 5g, 2-Amino-4-(4-methoxylphenyl)-9-methyl-5-oxo-5,6-dihydro-4H-pyrano[3,2-c]quinoline-3-carbonitrile] | 74 ± 6 | 67 ± 6 | 71 ± 6 | 74 ± 6 | 93 | 72 | 2.6 | – | – | – | – | – | – | – | –
